Assay results published in patent publication US5413915A (priority 1991, dated 1995).

Assays:
[1] = test system: rat liver microsomes; experiment: Detection of benzo(a)pyrene on bilayer spot (Example 3); format: biochemical; settings: 0.05 mL of 0.5 mg/mL solution on spot
Method: Two spots were prepared by manual streaking on a glass plate. The bottom layer of each spot consisted of 0.15 mL of a 4 mg/mL porcine 300 Bloom gelatin solution containing 1.2 mg/mL pararosaniline (PRA) reduced with solid sodium metabisulfite, spread over an area of 1100-1500 mm^2. After drying in air for two hours, the second layer, containing the following materials, was deposited. 0.05 mL of fresh rat liver microsomes containing approximately 62 mg/mL protein was added to 0.30 mL of a sodium phosphate buffer solution (pH=7.4) containing 4 mg/mL porcine 300 Bloom gelatin, and admixed with 0.02 mL of a solution containing 3 mM MgCl2, 50 mM tris(hydroxymethyl-)aminomethane buffer (pH=7.4) and 15 mM KCl. To this solution was added 10.5 mg solid reduced nicotinamide adenine dinucleotide phosphate (NADPH). 0.25 mL of this material was deposited over an area of 1300-1700 mm^2, completely covering the bottom layer, and was air dried for two hours. […] Within less than five minutes, violet color began to appear, and was well developed within twenty minutes.

[2] = test system: rat liver microsomes; format: biochemical; parameters: key: Positive: the development of coloration denoted a positive response; Negative: the absence of such coloration denoted a negative response
[3] = test system: microsomes; experiment: Activity of microsome-containing layers after four day time lapse (Example 4); format: biochemical
Method: At least five spots were prepared on a glass plate according to the procedure in Example 2 above, and dried in air. The spots were translucent but generally colorless during the first day. […] On the third day, two of the remaining spots were "recharged" by a new layer containing fresh NADPH in gelatin. After drying, both spots were essentially colorless. […] Thus, the oxidative activity of microsomes dispersed in gelatin layers persists strongly for at least three days.

[4] = test system: rat liver microsomes; format: biochemical; parameters: unit not given here
[5] = in vivo; cited from earlier work
[6] = in vivo; cited from earlier work; remark: listed apart in the source
[7] = test system: rat liver microsomes; experiment: Colorimetric reactions of constituents in bi-layer film (Example 1); format: biochemical
Method: In order to establish the color development behavior of various constituents employed in the invention alone and in several combinations, including two selected test chemicals, seven separate bi-layer film spots were prepared using an otherwise similar gelatin binder medium. The bottom layer of these spots contained reduced pararosaniline (PRA) in all instances except sample 7 wherein the oxidized PRA was substituted to illustrate the coloration of that constituent. An ascorbate salt was selected as typical of a benign test chemical, while benzo(a)pyrene was selected as a representative known carcinogen. The color behavior of the various samples was observed and identified in the following Table 3 together with the compositions of the samples tested.

[8] = test system: Salmonella typhimurium; settings: cited from earlier work
[9] = test system: benzo(a)pyrene-induced rat liver microsomes; experiment: Vapor exposure of detection elements in continuous flow chamber (Example 10); format: biochemical
Method: Detection elements of the present invention were prepared in the following manner. 13 mg PRA dissolved in 9.8 mL 0.1M TRISMOPS buffer (pH=7.4) and 3.2 mL ethanol, was bleached with 71 mg solid sodium sulfite. 0.05 mL Aliquots of the leuco-dye solution were plied to sheets of transparency film, and were air dried for one hour. […] After drying in air, the test spots were cut and mounted in 35 mm tissue culture dishes, then stored at -20° C. until ready for use. Detection elements were visually clear, with a slight flesh tone.
Vapor exposures of detection elements to the carcinogen chloromethyl methyl ether (CH3 --O--CH2 Cl) were carried out at ambient temperature,pressure, and humidity conditions in a continuous flow chamber. Air, metered at a flow rate of 1 L/min, was passed through a flask containing 2.0 mL of a rapidly stirred solution of CH3 --O--CH2 Cl in ethanol. After a glass wool plug to remove entrained liquid mists, the loaded air stream entered a 10 mm diameter tube into which the detection elements were mounted, without pre-moistening, parallel to the air flow. Flow conditions were calculated to be laminar (estimated Reynolds number=150) under these conditions. Exposure was conducted for ten minutes, after which the detection elements were removed and analyzed colorimetrically by taping to the sample beam exit slit of a double-beam spectrophotometer, and scanning the absorption spectrum versus an unexposed detection element affixed to the reference beam. At one exemplary test condition, in which the initial solution concentration of CH3 --O--CH2 Cl was 1.2M, 0.4 mL of the starting solution was recovered at the end of the exposure period. Based on both material balance and Raoult's law calculations, a single value of approximately 5200 ppm was determined for the airborne concentration of CH3 --O--CH2 Cl during the exposure. […] NADPH oxidation, equivalent to 0.4 mM or approximately 20% of the total NADPH, occurred during the 10-minute exposure, but ceased thereafter. By contrast, leuco-dye oxidation continued to intensify for some 2-4 hours, to a final level of about 0.5 mM in the detection element.
In similar experiments to FIG. 7, but in which the airborne concentration of CH3 --O--CH2 Cl was adjusted by lowering its solution concentration, color development is proportional to delivered dose, both by direct liquid administration and vapor exposure. […] For a 10-minute exposure, approximately 0.1% of the total CH3 --O--CH2 Cl in the air stream is absorbed and reacted by detection elements mounted parallel to the air flow.

[10] = test system: rat liver microsomes; experiment: Color development in detection elements with different leuco dyes (Table 2); format: biochemical
[11] = cited from earlier work
[12] = test system: microsomal protein; experiment: In vitro microsomal activation of hydrazine: leuco dye oxidation (Example 9); format: biochemical; settings: 0.5 mM hydrazine hydrate
Method: Test of leuco pararosaniline color formation and NADPH redox states, as a function of time after hydrazine addition, was conducted in vitro, and UV-visible absorbance changes monitored. All systems were aerobic (at least 0.2 mM O2). 0.03 mM Pararosaniline was reduced by addition of 0.1 mM sodium sulfite in 0.1 M 10 tris(hydroxymethyl-)aminomethane buffer (pH=7.5), and 0.3 mM NADPH with approximately 0.5 mg/mL microsomal protein (curves indicated with "+m"). At time=0, hydrazine hydrate (pH=7.5) was added to a final concentration of 0.5 mM. […] Approximately 60% of the leuco dye was oxidized (0.02 mM) during the reaction, and roughly twice that amount of […].

[13] = test system: cytochrome P450IA1
[14] = test system: rat liver microsomes; experiment: Color development in detection elements with different leuco dyes (Table 2); format: biochemical; settings: applied dose 10 μmol (formaldehyde 1 μmol); unexposed control also Black
Method: Solutions containing 0.5 mM of the respective dyes in 0.1 M TRIS buffer, pH=7.4 (except for nitro blue tetrazolium, 5.0 mM in 50% ethanolic TRIS, pH=7.4) were bleached with a few crystals of sodium sulfite or sodium dithionite, then plied in 0.02 mL aliquots as test spots on a clear sheet of transparency film. Spontaneous color development in air was noted (Table 2). Subsequently, a suspension of rat liver microsomes containing 1 mM NADPH and 1 mg/mL gelatin in 0.1 M TRIS-MOPS buffer (pH=7.7) was plied in 0.05 mL aliquots over the dried leuco-dye test spots. After drying, color development condition was noted, and the test spots saved for exposure tests to chemical substances (Table 2). Exposures were carried out by layering 0.01 mL of 0.1-1.0 M solutions of test chemical substances onto the test spots, and changes in color noted over time.

[15] = Oxidation-reduction potentials and redox mediation of dyes and reagents; format: physicochemical
Source text: Diphenylmethane and triphenylmethane dyes of the present invention have midpoint oxidation-reduction ("redox") potentials ("Em7 ") apparently more negative than the Em7 value for NADPH or cytochrome P450 isozymes. […] Specific examples include pararosaniline (E1/2 =-0.75 V) and malachite green (E1/2 =-0.55 V) (W. Kemula and A. Axt (1969) op cit; Also H. O. Willard, L. L. Merritt, and J. A. Dean (1965) Instrumental Methods of Analysis, 4th Ed., pp. 682-685 and 760-763, for a comparison of E1/2 versus Em7. These potentials are too negative for direct measurement in water, as Em7 =-0.42 V for water breakdown to hydrogen.), both of which respond with color development upon microsomal metabolic activation.
Methylene blue is a rapidly mediating redox indicator, and as such is conventionally used for standardization of electrodes and electrochemical systems used in redox potentiometry. Systems containing ascorbate were therefore tightly clamped at a redox potential of +10 to +20 mV, regardless of any interfering influences such as oxygen. […] Spectrum "mb" is that of pure methylene blue in its oxidized state. Curve "oxid" is the spectrum of a mixed solution of methylene blue as in curve "mb" plus the fully oxidized pararosaniline. […]

[16] = no microsomes, no NADPH, bottom PRA-reduced (samples 5, 6)
[17] = 10-minute vapor exposure, approximately 5200 ppm

SMILES: c1ccc2c(c1)cc1ccc3cccc4ccc2c1c34 [Benzo(a)pyrene]
- Time until violet color began to appear [1]: less than five
- Time until violet color well developed [1]: twenty
- Invention Response [2]: Positive
- Color developed on spot ([3]; fourth day, NADPH-recharged spot): strong violet color
- Color developed on spot ([3]; fourth day, not recharged): strong violet color
- Color developed on spot ([3]; second day, not recharged): strong violet color
- Color developed on spot ([3]; third day, recharged with fresh NADPH): deep purple color
- Detector Response, threshold dose [4]: 0.01
- Teratogen Activity [5]: +
- Carcinogenic Status [6]: Positive
- Tumorigen Activity [6]: +
- COLOR REACTION [7, 16]: No
- COLOR REACTION ([7]; top layer with rat liver microsomes and NADPH, bottom PRA-reduced (sample 4)): Yes

SMILES: COCCl [Chloromethyl methyl ether]
- Detector Response, threshold dose [4]: 0.1
- Teratogen Activity [5]: +
- Mutagenicity [8]: +
- Tumorigen Activity [6]: +
- NADPH oxidation in detection element [9, 17]: 0.4 mM
- NADPH oxidation, share of the total NADPH [9, 17]: approximately 20%
- Time over which leuco-dye oxidation continued to intensify ([9]; after 10-minute exposure): 2 to 4 h
- Leuco-dye oxidation, final level in the detection element ([9]; after 10-minute exposure, approximately 5200 ppm): about 0.5 mM

SMILES: NN [Hydrazine]
- Color of detection elements with leuco methylene blue in combination with pararosaniline ([10]; exposure to hydrazine): magenta color
- Color of detection elements using leuco malachite green ([10]; exposure to hydrazine solutions, separate tests): visually detectable green color
- Detector Response, threshold dose [4]: 0.1-20
- Em7 ([11]; midpoint redox potential): -0.73 V
- Leuco dye oxidized during the reaction [12]: 0.02 mM
- Time to asymptote of leuco-dye oxidation and NADPH reduction [12]: 2.0 to 2.5 h
- Leuco dye oxidized during the reaction ([12]; 0.03 mM PRA, 0.3 mM NADPH, microsomes): Approximately 60%
- Gain of sensitivity, 50%:50% BaP-induced and uninduced microsomes versus uninduced [13]: approximately 10 fold
- Loss of sensitivity, BNF-induced versus uninduced microsomes [13]: 20-50 fold
- Teratogen Activity [5]: +
- Mutagenicity [8]: +
- Tumorigen Activity [6]: +
- New Color Development, NBTZ [14]: Black

SMILES: O=C1O[C@H]([C@@H](O)CO)C(O)=C1O [free ascorbic acid, ascorbic acid]
- COLOR REACTION [7, 16]: color reaction occurs

SMILES: N=C1C=CC(=C(c2ccc(N)cc2)c2ccc(N)cc2)C=C1 [pararosaniline]
- E1/2 ([11]; literature (Kemula and Axt)): -0.75 V
- standard oxidation-reduction potential (Em7) ([15]; aqueous media, from FIG. 1 data): < -0.1 V
- Time to equilibrate in a redox voltage-clamped system ([15]; ascorbate / methylene blue clamped system): two
